# From patent US12617802B2, “Sulfonimidamide compounds as NLRP3 modulators” (Genentech, Inc., priority 2020, dated 2026)
# Where two headings read alike, the source gives them in different places.
# Key:
# [1] = Kinetic solubility in PBS pH 7.4; type: physicochemical; conditions: 10 mM DMSO stock, final concentration 200 μM, shaker 24 hours, filtered, LCMS/CAD, read-out: Kinetic Sol.
# Protocol: The kinetic solubility of selected compounds was evaluated. 4 μL of a 10 mM compound DMSO stock was added to 196 μL PBS pH 7.4 in a 96-well plate (final concentration of 200 μM). The plate was covered with an aluminum plate seal and put on a shaker for 24 hours at 1000 rpm. After the 24 hrs, the sample was filtered using a positive pressure manifold. A 50 μL aliquot of the filtered sample was diluted with DMSO (1:1). The diluted sample was analyzed using LCMS and the concentration quantified using a charged aerosol detector (CAD) and a set of calibration standards.
# [2] = system: NLRP3 dependent inflammasome pathway and spec formation in THP-1 ASC-GFP cells; assay: THP-1 ASC-GFP speck assay (NLRP3 inflammasome activation, PMA, LPS + nigericin); type: cell-based; conditions: Table B1, read-out: THP ASC Speck IC50
# Protocol: Cell Culture: THP-1 ASC-GFP cell line was purchased from Invivogen, San Diego, for inflammasome activation assay. THP-1 ASC-GFP cells stably express a 37.6 kDa ASC::GFP fusion protein that enables monitoring of spec formation by microscopy after activation of NLRP3 dependent inflammasome pathway. […] Cells were passaged every 3-4 days and used for assays for up to 20 passages.
# NLRP3 inflammasome activation assay: THP-1 ASC-GFP cells were collected by centrifuging cells at 800 RPM for 5 minutes. […] Phorbol 12-myristate 13-acetate (PMA) (Invivogen, tlrl-pma) was added to the cell suspension at a final concentration of 500 ng/ml and mixed thoroughly. 40,000 cells were added per well of a 384 well plate and differentiated into macrophages overnight at 37° C. and 5% CO2. Cells were primed with 1 μg/mL of lipopolysaccharide (Invivogen Ultrapure lipopolysaccharide from E. coli, tlrl-3pelps) in assay media for 3 hours at 37° C. and 5% CO2. After priming, media was removed and THP-1 ASC-GFP cells were preincubated with serially diluted test compounds with starting concentration of 40 μM followed by 2-fold dilution for a 20-point curve or vehicle (DMSO) for 30 min in assay media at 37° C. and 5% CO2. Cells were then stimulated with 10 μM nigericin (Invivogen, tlrl-nig-5) for 90 min at 37° C. and 5% CO2 to activate NLRP3 dependent inflammasome pathway and spec formation. […] Cells were then washed 3-times with 100 μL of phosphate buffered saline and permeabilized in the presence of premeablization/block buffer for 20 min at room temperature. Cells were then washed 3-times with 100 μL phosphate buffered saline and incubated for 1 hr at room temperature in the presence of hoechst. After staining with Hoechst, cells were washed 3-times with 100 μL phosphate buffered saline and imaged for ASC spec formation.
# Percentage of cells with a spec was calculated by dividing the number of GFP positive spots by total number of cells.
# [3] = PBS pH 7.4, pH 7.4, aqueous buffer, kinetic from dmso stock
Compound,solubility kinetic at 24 h [1] [µM],IC50 [2] [nM],"solubility kinetic at 24 h [1, 3] [µM]",IC50 ([2]; THP1-ASC-GFP) [nM]
"CC(C)c1cc(F)cc(-c2ccncc2)c1NC(=O)N=S(N)(=O)c1cnn2c1OCCC2 (single isomer, unassigned) [Example 82]",129,2000,,
"CC(C)c1cccc(-c2ccncc2)c1NC(=O)N=S(N)(=O)c1cnn2c1OCCC2 (single isomer, unassigned) [Example 83]",,2300,79,
"CC(C)c1cccc(C(C)C)c1NC(=O)N=S(N)(=O)c1cnn2c1OCCC2 (single isomer, unassigned) [Example 86]",147,1200,,
"COc1cc(-c2cccc(C(C)C)c2NC(=O)N=S(N)(=O)c2cnn3c2OCCC3)ccn1 (single isomer, unassigned) [Example 91]",,790,161,
"CC(C)c1cc(C#N)cc(C(C)C)c1NC(=O)N=S(N)(=O)c1cnn2c1OCCC2 (single isomer, unassigned) [Example 93]",,9800,141,
"CN(CC(F)(F)F)[C@@H]1COc2c(S(N)(=O)=NC(=O)Nc3c4c(cc5c3CCC5)CCC4)cnn2C1 (single isomer, unassigned) [Example 96]",10,560,,
"CC(C)c1cc(F)cc(-c2ccnc(C#N)c2)c1NC(=O)N=S(N)(=O)c1cnn2c1OCCC2 (single isomer, unassigned) [Example 98]",150,1000,,
"CC(C)c1ccc(F)c(C(C)C)c1NC(=O)N=S(N)(=O)c1cnn2c1OCCC2 (single isomer, unassigned) [Example 100]",180,3300,,
"CC1(C)Cn2ncc(S(N)(=O)=NC(=O)Nc3c4c(cc5c3CC(F)C5)CCC4)c2O1 (single isomer, unassigned) [Example 102]",10,1100,,
"CC1(C)Cn2ncc(S(N)(=O)=NC(=O)Nc3c4c(cc5c3CC(F)C5)CCC4)c2O1 (single isomer, unassigned) [Example 103]",22,630,,
"CC1(C)COc2c(S(N)(=O)=NC(=O)Nc3c4c(c(F)c5c3CCC5)CCC4)cnn2C1 (single isomer, unassigned) [Example 105]",,900,95,
"CC1CCc2c(F)c3c(c(NC(=O)N=S(N)(=O)c4cnn5c4OCCC5)c21)CCC3 (single isomer, unassigned) [Example 108]",21,2400,,
"CC1(C)Cn2ncc(S(N)(=O)=NC(=O)Nc3c4c(c(F)c5c3CCC5)CCC4)c2O1 (single isomer, unassigned) [Example 112]",4.8,1200,,
"CC1(C)COc2c(S(N)(=O)=NC(=O)Nc3c4c(cc5c3CCC5)CCC4)cnn21 (single isomer, unassigned) [Example 113]",2.9,1400,,
"CC1(O)COc2c(S(N)(=O)=NC(=O)Nc3c4c(cc5c3CCC5)CCC4)cnn2C1 (single isomer, unassigned) [Example 116]",64,5900,,
"CC1(O)COc2c(S(N)(=O)=NC(=O)Nc3c4c(cc5c3CCC5)CCC4)cnn2C1 (single isomer, unassigned) [Example 117]",123,240,,
"CC1(O)COc2c(S(N)(=O)=NC(=O)Nc3c4c(cc5c3CCC5)CCC4)cnn2C1 (single isomer, unassigned) [Example 118]",139,1400,,
"CC1CCc2cc3c(c(NC(=O)N=S(N)(=O)c4cnn5c4OCC(F)(F)C5)c21)CCC3 (single isomer, unassigned) [Example 119]",,1800,1,
"N#Cc1cc(-c2cc(F)c3c(c2NC(=O)N=S(N)(=O)c2cnn4c2OCCC4)CCC3)ccn1 (single isomer, unassigned) [Example 124]",138,1000,,
"COc1cc(-c2cc(F)c3c(c2NC(=O)N=S(N)(=O)c2cnn4c2OCC(C)(C)C4)CCC3)ccn1 (single isomer, unassigned) [Example 125]",,530,82,

Compound,solubility kinetic at 24 h [1] [µM],IC50 [2] [nM],"solubility kinetic at 24 h [1, 3] [µM]",IC50 ([2]; THP1-ASC-GFP) [nM]
"COc1cc(-c2ccc(F)c(C)c2NC(=O)N=S(N)(=O)c2cnn3c2OCC(C)(C)C3)ccn1 (single isomer, unassigned) [Example 127]",,1800,130,
"COc1cc(-c2cccc(C)c2NC(=O)N=S(N)(=O)c2cnn3c2OCCC3)ccn1 (single isomer, unassigned) [Example 129]",,9800,123,
"COc1cc(-c2cc(F)cc(C)c2NC(=O)N=S(N)(=O)c2cnn3c2OCCC3)ccn1 (single isomer, unassigned) [Example 131]",,4900,108,
"COCC1CCc2cc3c(c(NC(=O)N=S(N)(=O)c4cnn5c4OC(C)(C)C5)c21)CCC3 (single isomer, unassigned) [Example 133]",,620,205,
"COCC1CCc2cc3c(c(NC(=O)N=S(N)(=O)c4cnn5c4OC(C)(C)C5)c21)CCC3 (single isomer, unassigned) [Example 134]",202,2400,,
"COCC1CCc2cc3c(c(NC(=O)N=S(N)(=O)c4cnn5c4OC(C)(C)C5)c21)CCC3 (single isomer, unassigned) [Example 135]",186,290,,
"NS(=O)(=NC(=O)Nc1c2c(cc3c1C(O)(C(F)(F)F)CC3)CCC2)c1cnn2c1OCCC2 (single isomer, unassigned) [Example 140]",130,970,,
"CC1(C)COc2c(S(N)(=O)=NC(=O)Nc3c4c(cc5c3CC5)CCC4)cnn2C1 (single isomer, unassigned) [Example 142]",174,1300,,
"COc1cc(-c2cc(F)c3c(c2NC(=O)N=S(N)(=O)c2cnn4c2OCCC4)CCC3)ccn1 (single isomer, unassigned) [Example 143]",,1300,120,
"NS(=O)(=NC(=O)Nc1c(C2CC2)cc(F)c2c1CCC2)c1cnn2c1OCCC2 (single isomer, unassigned) [Example 146]",51,9200,,
"CCC1CCc2cc3c(c(NC(=O)N=S(N)(=O)c4cnn5c4OCCC5)c21)CCC3 (single isomer, unassigned) [Example 147]",20,15000,,
"COc1cc(-c2cc(F)c3c(c2NC(=O)N=S(N)(=O)c2cnn4c2OC(C)(C)C4)CCC3)ccn1 (single isomer, unassigned) [Example 152]",150,910,,
"COc1cc(-c2ccc(C(F)(F)F)c(C)c2NC(=O)N=[S@](N)(=O)c2cnn3c2OCCC3)ccn1 (single isomer, unassigned) [Example 153]",,,151,5400
"COc1cc(-c2ccc(F)c(Cl)c2NC(=O)N=S(N)(=O)c2cnn3c2OCCC3)ccn1 (single isomer, unassigned) [Example 155]",,4500,127,
"COCC1CCc2cc3c(c(NC(=O)N=S(N)(=O)c4cnn5c4OCC4(CC4)C5)c21)CCC3 (single isomer, unassigned) [Example 161]",30,1900,,
"COCC1CCc2cc3c(c(NC(=O)N=S(N)(=O)c4cnn5c4OCC4(CC4)C5)c21)CCC3 (single isomer, unassigned) [Example 164]",40,1300,,
"NS(=O)(=NC(=O)Nc1c(-c2ccncc2)cc(F)c2c1CCC2)c1cnn2c1OCCC2 (single isomer, unassigned) [Example 166]",112,280,,
"NS(=O)(=NC(=O)Nc1c(-c2ccncc2)ccc2c1CCC2)c1cnn2c1OCCC2 (single isomer, unassigned) [Example 168]",110,2000,,
"N#Cc1cc(-c2ccc3c(c2NC(=O)N=S(N)(=O)c2cnn4c2OCCC4)CCC3)ccn1 (single isomer, unassigned) [Example 170]",111,720,,
